Test results reported in patent US20080095711A1, “Modulators of Pulmonary Hypertension” (priority 2006, published 2008).
“Also recorded” adds a separate entry of the source.

What was measured:
[1] = test system: rabbit intralobar pulmonary arteries; assay: Promotion of 5,6-EET induced vasoconstriction in rabbit intralobar pulmonary artery rings; conditions: compound at 1 μM; rabbit PA rings
Method: To obtain the pulmonary arteries used in the study, adult New Zealand white rabbits (2.4-3.0 kg) were anesthetized with pentobarbital sodium (15 mg/kg iv) for 10 minutes after intramuscular administration of ketamine (8 mg/kg) and xylazine (2 mg/kg). A tracheostomy was performed and a tracheal cannula was inserted. The animals were ventilated via a fixed volume ventilator (Harvard) with room air (tidal volume: 8-10 ml/kg at 15 cycles/min). A catheter was inserted into a carotid artery for administration of heparin (1,000 units, iv) 10 minutes before exsanguination of the animal. After exsanguination, the lungs were removed for isolation of the pulmonary vessels. Intralobar, second order pulmonary arteries (PA) were obtained as described previously (Stephenson A. H., et al., American Journal of Physiology 284: H2153-H2161, 2003). […] Ring tension was measured from one of the support wires attached to an isometric force transducer (FT03, Grass) and recorded continuously on a polygraph (Grass). Each ring was placed under a basal (passive) tension (0.75 to 1.5 g) determined to result in a maximal contractile response to KCl (60 mM). […]

[2] = test system: isolated perfused rabbit lungs; assay: Hypoxia-induced pulmonary vasoconstriction in isolated perfused rabbit lungs (with L-NAME); conditions: compound at 10 μM in perfusate, L-NAME 100 μM
Method: Adult New Zealand white rabbits were prepared as described in Example 2. After exsanguination was completed, a midsternal thoracotomy was performed, and the heart and lungs were removed en bloc. Fluid-filled catheters were placed into the PA and the left atrium for lung perfusion and pressure measurements. The isolated lungs were ventilated at 10 ml/kg with 26-30 breaths/min of 15% O2-6% CO2-79% N2 to achieve a perfusate pH of 7.33±0.01, PCO2 of 38.1±2.8 mmHg, and PO2 of 107.3±5.9 mmHg. The lungs were perfused in a humidified chamber (34-37° C.) in a recirculating manner with 150 ml of PSS containing (in mM) 118.3 NaCl, 4.7 KCl, 2.5 CaCl2, 1.2 MgSO4, 1.2 KH2PO4, 25.0 NaHCO3, 0.026 Na-EDTA, and 11.1 glucose (pH 7.4) to which hetastarch was added for maintenance of oncotic pressure. […] Pulmonary arterial (Ppa, inflow), pulmonary venous (Pla, outflow), and airway pressures were recorded continuously. Microvascular pressure (Pmv) was measured by the double occlusion method (Dawson C. A., et al., Journal of Applied Physiology 64: 274-284, 1988; Wurtz M. M., et al., J Appl Physiol 73: 2135-2141, 1992). […] Total PVR was calculated as (Ppa Pla)/perfusate flow rate. Arterial PVR was calculated as (Ppa Pmv)/perfusate flow rate, and venous PVR was calculated as (Pmv Pla)/perfusate flow rate (Stephenson A. H., et al., Am J Physiol 275: H100-H109, 1998).

[3] = test system: rabbit intralobar pulmonary arteries; assay: Inhibition of agonist-induced vasoconstriction in rabbit intralobar pulmonary artery rings (ring tension); conditions: compound at 10 μM; for inhibition of 5,6-EET-induced vasoconstriction (concentration-response curve shifted to the right): 5,6-EET 1×10^−8-1×10^−5 M, rabbit PA rings
Method: To obtain the pulmonary arteries used in the study, adult New Zealand white rabbits (2.4-3.0 kg) were anesthetized with pentobarbital sodium (15 mg/kg iv) for 10 minutes after intramuscular administration of ketamine (8 mg/kg) and xylazine (2 mg/kg). A tracheostomy was performed and a tracheal cannula was inserted. The animals were ventilated via a fixed volume ventilator (Harvard) with room air (tidal volume: 8-10 ml/kg at 15 cycles/min). A catheter was inserted into a carotid artery for administration of heparin (1,000 units, iv) 10 minutes before exsanguination of the animal. After exsanguination, the lungs were removed for isolation of the pulmonary vessels. Intralobar, second order pulmonary arteries (PA) were obtained as described previously (Stephenson A. H., et al., American Journal of Physiology 284: H2153-H2161, 2003). Briefly, intralobar PA (1-2 mm OD) were dissected free of extravascular tissue, cut into rings 3-4 mm in length and suspended in water-jacketed tissue chambers containing 10 ml of a physiological salt solution (PSS) composed of (in mM): NaCl (118.3), KCl (4.7), CaCl2 (2.5), MgS04 (1.2), KH2P04 (1.2), NaHC03 (25) Na-EDTA (0.026), and glucose (11.1). The PSS was gassed with 95% O2-5% CO2 (pH: 7.4) and maintained at 37° C. Each ring was mounted between two stainless steel support wires. Ring tension was measured from one of the support wires attached to an isometric force transducer (FT03, Grass) and recorded continuously on a polygraph (Grass). Each ring was placed under a basal (passive) tension (0.75 to 1.5 g) determined to result in a maximal contractile response to KCl (60 mM). In some studies, basal tension was increased with 25 mM KCl to achieve a submaximal increase in active tension. At basal tension, concentrations of 5,6-EET (1×10^−8-1×10^−5 M, delivered in 1 μl of absolute ethanol) were added individually or cumulatively to the rings in 10 ml PSS. Total ethanol concentration in the tissue chambers never exceeded 0.1%. In these experiments, 5,6-EET was added in the presence or absence of the selective 5,6-EET inhibitors 13-HTEC (10 μM) and 14-HTYC (10 μM). […] PA rings were also exposed to various concentrations of PGF2α, (Sigma Chemical Company, St. Louis, Mo.), 14,15-EET (Cayman Chemical, Ann Arbor, Mich.), 5-hydroxytryptamine (5-HT) (Sigma Chemical Company, St. Louis, Mo.), and norepinephrine (NE) (Sigma Chemical Company, St. Louis, Mo.).

mice = conditions: Pokreisz et al. 2006; cited from earlier work

SMILES: CCCCCC1OC1CCCCCCC/C=C\CCCC(=O)O (stereo not shown) [14,15-EEZE, 14,15-epoxyeicosa-5(Z)-enoic acid]
- effect on vasoconstrictor activity of exogenously administered 5,6-EET (concentration-response curve shifted to the left) [1]: significantly promoted or agonized

SMILES: CCCCCCCOCCCCCCC/C=C\CCCC(=O)O [Compound 13-HTEC, 13-heptyloxytridec-5(Z)-enoic acid]
- effect on pulmonary arterial inflow (Ppa) pressure / hypoxia-induced vasoconstriction [2]: hypoxia-induced vasoconstriction is reduced; also recorded: significantly decreased
- inhibition of 5-hydroxytryptamine (5-HT)-mediated vasoconstriction of PA [3]: is not inhibited; also recorded: does not inhibit
- inhibition of 14,15-EET-mediated vasoconstriction of PA [3]: is not inhibited; also recorded: does not inhibit
- inhibition of PGF2α-mediated vasoconstriction of PA [3]: is not inhibited; also recorded: does not inhibit
- inhibition of norepinephrine (NE)-mediated vasoconstriction of PA [3]: Minimal effects; also recorded: may have partially inhibited
- inhibition of 5,6-EET-induced vasoconstriction (concentration-response curve shifted to the right) [3]: specifically inhibit; also recorded: significantly inhibited

SMILES: CCCCCCOCCCCCCCCC#CCCCC(=O)O [Compound 14-HTYC, 14-(hexyloxy)tetradec-5-ynoic acid]
- inhibition of 5,6-EET-induced vasoconstriction (concentration-response curve shifted to the right) [3]: specifically inhibit

SMILES: C#CCOc1ccccc1CCCCCC(=O)NS(C)(=O)=O [MSPPOH, N-methyl sulfonyl-6-(2-propargyloxyphenyl)hexanamide]
- effect on acute hypoxia-induced pulmonary hypertension (mice): significantly reduced
- effect on chronic hypoxia-induced pulmonary vascular remodeling (mice): significantly reduced
